Columns and labels:
HEK293 cells [1] = experiment: Preliminary screening as mRNA vectors, EGFP mRNA transfection of HEK293 cells; type: cell-based; conditions: HEK293 cells, 96-well plates, EGFP mRNA 50 ng per well; percentage of GFP fluorescent cells relative to total number of cells (Hoechst)
How it was run: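 HEK293 cells in DMEM plus 10% FBS transfected in 96-well format with 50 ng EGFP mRNA per well; Lipofectamine2000 served as positive control. Read-out is the percentage of GFP-fluorescent cells among total cells, counted by Hoechst nuclear stain.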

HEK293 cells [2] = experiment: Preliminary screening as DNA vectors, GFP transfection of HEK293 cells; type: cell-based; conditions: HEK293 cells; lipid/DOPE liposome with 75 ng plasmid DNA (psin-EGFP-IRES-Puro); number of cells expressing GFP divided by total number of nuclei (Hoechst)
How it was run: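 HEK293 cells in DMEM/10% FBS transfected with 75 ng EGFP plasmid per well complexed with amino lipid/DOPE liposomes in pH 5.6 sodium acetate. Hoechst nuclear stain added 20-24 h post-transfection, then cells cultured another 20-24 h. Confocal imaging gives GFP-positive cells as % of total nuclei.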

Compound	Absolute mRNA transfection efficiency in HEK293 cells (HEK293 cells [1])	Absolute DNA transfection efficiency in HEK293 cells (HEK293 cells [2])
CCCCCCCCCCCCCNc1nc(NCCCCCCCCC)nc(NCCCN2CCN(C)CC2)n1 [Compound N9N13D9]	2.5%	0.0%
CCCCCCCCCCCCCCCCCCNc1nc(NCCCCCCC)nc(NCCN2CCCC2)n1 [Compound N7N18D3]	0.1%	5.0%
CCCCCCCCCCCCCCCCCCNc1nc(NCCCCCCCCC)nc(NCCN2CCN(C)CC2)n1 [Compound N9N18D5]	0.9%	0.0%
CCCCCCCCCCCCCCCNc1nc(NCCCCCC)nc(NCCCN2CCOCC2)n1 [Compound N6N15D8]	0.0%	0.3%
CCCCCCCCCCCCCCCCCCSc1nc(NCCN(CC)CC)nc(SCCCCCCCCC)n1 [Compound S9S18D7]	1.9%	11.8%
CCCCCCCCCCCCCCCCCCNc1nc(NCCCCCCC)nc(NCCCN2CCOCC2)n1 [Compound N7N18D8]	0.2%	0.2%
CCCCCCCCCCCNc1nc(NCCCCCCC)nc(NCCN2CCCCC2)n1 [Compound N7N11D4]	0.1%	1.4%
CCCCCCCCCCCCCCCCCCNc1nc(NCCCCCCC)nc(NCCN2CCCCC2)n1 [Compound N7N18D4]	0.1%	0.2%
CCCCCCCCCCCCCCCNc1nc(NCCCCCC)nc(NCCN2CCCC2)n1 [Compound N6N15D3]	0.3%	0.6%
CCCCCCCCCCCCCNc1nc(NCCCCCCCCCCC)nc(NCCCN(C)C)n1 [Compound N11N13D6]	0.2%	0.8%
CCCCCCCCCCCCCCCCCCSc1nc(NCCN2CCCC2)nc(SCCCCCCCCCCCC)n1 [Compound S12S18D3]	0.2%	2.1%
CCCCCCCCCCCCCCCNc1nc(NCCCCCCC)nc(NCCN2CCOCC2)n1 [Compound N7N15D2]	0.1%	0.0%
CCCCCCCCCCCCCCCNc1nc(NCCCCCCCC)nc(NCCN(C)C)n1 [Compound N8N15D1]	0.7%	1.5%
CCCCCCCCCCCCCCCSc1nc(NCCN2CCCCC2)nc(SCCCCCCCCCCCCCC)n1 [Compound S14S15D4]	0.1%	0.7%
CCCCCCCNc1nc(NCCCCCC)nc(NCCN(C)C)n1 [Compound N6N7D1]	0.1%	0.0%
CCCCCCCCCCCCCCCNc1nc(NCCCCCCC)nc(NCC2CCN(C)CC2)n1 [Compound N7N15D10]	2.5%	0.6%
CCCCCCCCCCCCCCCCNc1nc(NCCCCCCC)nc(NCCN2CCOCC2)n1 [Compound N7N16D2]	0.1%	0.0%
CCCCCCCCCCCCNc1nc(NCCCCCCCC)nc(NCCCN(C)C)n1 [Compound N8N12D6]	0.1%	0.4%
CCCCCCCCCCCCCCCNc1nc(NCCCCCCCCCCC)nc(NCCN2CCN(C)CC2)n1 [Compound N11N15D5]	0.8%	0.2%
CCCCCCCCCCCSc1nc(NCCN2CCCCC2)nc(SCCCCCCCCC)n1 [Compound S9S11D4]	4.1%	15.2%
CCCCCCCCCCCSc1nc(NCCN2CCCCC2)nc(SCCCCCCCCCCC)n1 [Compound S11S11D4]	0.4%	4.0%
CCCCCCCCCCCCNc1nc(NCCCCCCCCCCCC)nc(NCCCN2CCOCC2)n1 [Compound N12N12D8]	0.3%	0.0%
CCCCCCCCCCCCCCCSc1nc(NCCN2CCN(C)CC2)nc(SCCCCCCCC)n1 [Compound S8S15D5]	40.0%	31.2%
CCCCCCCCCNc1nc(NCCCCCCCCC)nc(NCCCN2CCN(C)CC2)n1 [Compound N9N9D9]	0.2%	0.0%

— US20230123334A1, “AMINO LIPID COMPOUND, PREPARATION METHOD THEREFOR, AND APPLICATION THEREOF” (SHENZHEN SHENXIN BIOTECHNOLOGY CO., LTD., priority 2020, published 2023)
